This series can be described thus: cn = amount concentration of the nth substance listed, in mol/dm3. Particulars: 298.15 K, 101.3 kPa, Liquid, Taylor dispersion method.

SMILES strings stand for the structures. Several values for one entry are separate records, joined by “and”; a condition that tells them apart may be missing. Equal values may be shown once.

For `CCCCCCCC(=O)O` [octanoic acid] + O, the binary diffusion coefficient by setting is: (c1 = 0.00075) 1.19e-09 m2/s; (c1 = 0.001) 1.08e-09 m2/s; (c1 = 0.0015) 9.5e-10 m2/s; (c1 = 0.002) 8.72e-10 m2/s; (c1 = 0.0025) 8.49e-10 m2/s and 8.5e-10 m2/s.
Consider `OC[C@H]1O[C@@H]2O[C@H]3[C@H](O)[C@@H](O)[C@@H](O[C@H]4[C@H](O)[C@@H](O)[C@@H](O[C@H]5[C@H](O)[C@@H](O)[C@@H](O[C@H]6[C@H](O)[C@@H](O)[C@@H](O[C@H]7[C@H](O)[C@@H](O)[C@@H](O[C@H]1[C@H](O)[C@H]2O)O[C@@H]7CO)O[C@@H]6CO)O[C@@H]5CO)O[C@@H]4CO)O[C@@H]3CO` [α-cyclodextrin] + O, for which the binary diffusion coefficient (c1 = 0.0025) is 3.53e-10 m2/s.
For the compound `CCCCCCCC(=O)[O-].[Na+]` [sodium octanoate] + O, the binary diffusion coefficient by setting is: (c1 = 0.025) 8.56e-10 m2/s; (c1 = 0.05) 8.54e-10 m2/s; (c1 = 0.075) 8.52e-10 m2/s; (c1 = 0.085) 8.51e-10 m2/s; (c1 = 0.1) 8.5e-10 m2/s.

The values are drawn from the NIST ThermoML archive (doi:10.1016/j.jct.2015.11.013).
